Patent publication US20190390220A1, “Compositions and Methods of Increasing Aphid Resistance in Transgenic Plants” (Boyce Thompson Institute, priority 2018, published 2019)

Assays:
A. glycines = assay: flavonoid in vitro feeding bioassay on artificial diet, soybean aphid; format: in vivo, Aphis glycines; settings: artificial diet with 0.01% apigenin; compared with control diet (DMSO); adults
Procedure: (§1) A pea aphid colony (A. pisum strain CWR09/18, kindly supplied by Angela Douglas, Cornell University) was reared on faba bean plants (Viciafaba, var. Windsor; Johnny's Selected Seeds, Winslow, Me., USA) which were grown in Metromix 200 (Scotts, Marysville, Ohio, USA) in a growth chamber at the same condition with soybeans in insect rearing room at 25° C. with a 12:12 h day:night cycle (64). A soybean aphid colony (A. glycines), kindly supplied by Gustavo Macintosh at Iowa State University, was reared on soybean plants (G. max var. William 82) that were grown in same soil and conditions as described for the pea aphid colony.
(§2) For flavonoid in vitro feeding bioassays, the effects of three isoflavones, daidzein, formononetin and prunetin, as well as two flavones, apigenin and kaempferol on A. glycines and A. pisum adults were tested by rearing 30 insects on an artificial diet (65) in membrane feeding tubes. Adults were fed an artificial diet containing one of the following treatments, 0.01% apigenin, 0.2% daidzein, 0.01% prunetin, 0.04% formononetin or 0.02% kaempferol for 6 days in an insect rearing room (25° C. with a 12:12 h day:night cycle). […] The compound concentrations for diet experiments were based on their measured concentrations in soybean leaves. After 6 days of feeding, the number of surviving aphids was counted.

A. pisum = assay: flavonoid in vitro feeding bioassay on artificial diet, pea aphid; format: in vivo, Acyrthosiphon pisum; settings: artificial diet with 0.2% daidzein, 0.01% prunetin or 0.04% formononetin; compared with control diet (DMSO) or flavones; adults
Procedure: as §1, §2

Trichoplusia ni = settings: constitutively produced in soybean PI 227697 leaves; cited from earlier work
Anticarsia gemmatalis = settings: constitutively produced in soybean PI 227697 leaves; cited from earlier work

O=c1cc(-c2ccc(O)cc2)oc2cc(O)cc(O)c12 [apigenin]
mortality of SBA (A. glycines): increased

O=c1c(-c2ccc(O)cc2)coc2cc(O)ccc12 [daidzein]
mortality of PA (A. pisum): higher mortality

O=c1c(-c2ccc(O)cc2)coc2cc(O[C@@H]3O[C@H](CO)[C@@H](O)[C@H](O)[C@H]3O)cc(O)c12 [genistin]
performance of Trichoplusia ni larvae (Trichoplusia ni): negatively affect the performance | performance of Anticarsia gemmatalis larvae (Anticarsia gemmatalis): negatively affect the performance

COc1cc(O)c2c(=O)c(-c3ccc(O)cc3)coc2c1 [prunetin]
mortality of PA (A. pisum): higher mortality
